{"source": "patent US20090131354A1", "about": "“miR-126 REGULATED GENES AND PATHWAYS AS TARGETS FOR THERAPEUTIC INTERVENTION” (priority 2007, published 2009)", "key": {"[1]": {"system": "human H460 lung cancer xenografts", "experiment": "H460 lung cancer xenograft, cells electroporated before implantation", "format": "in vivo, NOD/SCID mice", "settings": "H460, day 7", "method": "The inventors assessed the growth-inhibitory activity of hsa-miR-126 in human lung cancer xenografts grown in immunodeficient mice. Hsa-miR-126 was delivered into A549 and H460 lung cancer cells via electroporation using the Gene Pulser Xcell™ (BioRad) with the following settings: 15×10^6 cells with 5 μg miRNA in 200 μl OptiMEM, square wave pulse at 150 V for 10 ms. Electroporated cells (5×10^6) were mixed with BD Matrigel™, (BD Biosciences; San Jose, Calif., USA; cat. no. 356237) in a 1:1 ratio and injected subcutaneously into the flank of NOD/SCID mice (Charles River Laboratories, Inc.; Wilmington, Mass., USA). As a negative control, A549 and H460 cells were electroporated with negative control (NC) miRNA (Pre-miR™ microRNA Precursor Molecule-Negative Control #2; Ambion cat. no. AM17111) as described above. To assess the anti-oncogenic activity of hsa-miR-126, six animals were injected with A459 cells and six animals were injected with H460 cells. NC miRNA-treated cells were injected into the opposite flank of the same animal to control for animal-to-animal variability. Once tumors reached a measurable size (A549 at 7 days post injection; H460 at 5 days post injection), the length and width of tumors were determined every day for up to 11 days. Tumor volumes were calculated using the formula, Volume=length X width X width/2, in which the length is greater than the width. […]"}, "[2]": {"system": "PPC-1 prostate cancer cells", "experiment": "Alamar Blue proliferation assay, PPC-1", "format": "cell-based, human", "settings": "PPC-1 cells, 30 nM, normalized to negative control miRNA (100% proliferation)", "source_text": "(§1) The inventors assessed the therapeutic effect of hsa-miR-126 for prostate cancer by using 4 individual human prostate cancer cell lines. To measure cellular proliferation of prostate cancer cells, the following prostate cancer cell lines were used: PPC-1, derived from a bone metastasis; Du145, derived from a brain metastasis; RWPE2, derived from prostate cells immortalized by human papillomavirus 18 and transformed by the K-RAS oncogene; and LNCaP, derived from a lymph node metastasis (Stone et al., 1978; Horoszewicz et al., 1980; Brothman et al., 1991; Pretlow et al., 1993; Bello et al., 1997). PPC-1 and Du145 cells lack expression of the prostate-specific antigen (PSA) and are independent of androgen receptor (AR) signaling. In contrast, RWPE2 and LNCaP cells test positive for PSA and AR. Cells were transfected with synthetic hsa-miR-126 (Pre-miR™-hsa-miR-126, Ambion cat. no. AM 17100) or negative control miRNA (NC; Pre-miR™ microRNA Precursor Molecule-Negative Control #2; Ambion cat. no. AM17111) in a 96-well format using a lipid-based transfection reagent. […] Proliferation was assessed 4-7 days post-transfection using Alamar Blue™ (Invitrogen) following the manufacturer's instructions. […] Fluorescent light units (FLU) were measured after 3 hours, normalized to the control, and plotted as percent change in proliferation. […]"}, "[3]": {"system": "Du145 prostate cancer cells", "experiment": "Alamar Blue proliferation assay, Du145", "format": "cell-based, human", "settings": "30 nM, normalized to negative control miRNA (100% proliferation)", "source_text": "as §1"}, "[4]": {"system": "LNCaP prostate cancer cells", "experiment": "Alamar Blue proliferation assay, LNCaP", "format": "cell-based, human", "settings": "30 nM, normalized to negative control miRNA (100% proliferation)", "source_text": "as §1"}, "[5]": {"system": "prostate cancer cells PPC-1, Du145, LNCaP and RWPE2", "experiment": "Alamar Blue proliferation assay, all prostate cancer cell lines tested", "format": "cell-based, human", "source_text": "as §1"}, "[6]": {"system": "PC3 prostate cancer cells", "experiment": "Long-term growth curve with repeated electroporation, PC3", "format": "cell-based, human", "source_text": "(§2) To evaluate the therapeutic activity of hsa-miR-126 over an extended period of time, we conducted growth curve experiments in the presence of miRNA for up to 21 days. Since in vitro transfections of naked interfering RNAs, such as synthetic miRNA, are transient by nature and compromised by the dilution of the oligonucleotide during ongoing cell divisions, we administered miRNA at multiple time points (Bartlett and Davis, 2006; Bartlett and Davis, 2007). To accommodate miRNA delivery into a large quantity of cells, we employed the electroporation method to delivery hsa-miR-126 or negative control miRNA into PPC-1, PC3 and Du145 human prostate cancer cells. Briefly, 1×10^6 PPC-1 or PC3 cells, and 0.5×10^6 Du145 cells were electroporated with 1.6 μM hsa-miR-126 or negative control using the BioRad Gene Pulser Xcell™ instrument (BioRad Laboratories Inc., Hercules, Calif., USA), seeded and propagated in regular growth medium. Experiments with PC3 and Du145 cells were carried out in triplicates. When the control cells reached confluence (days 4 and 11 for PPC-1; days 7 and 14 for PC3 and Du145), cells were harvested, counted and electroporated again with the respective miRNAs. […] The population doubling was calculated from these electroporation events using the formula PD=ln(Nf/N0)/ln2, and cell counts were extrapolated and plotted on a linear scale (FIGS. 10-12). […]"}, "[7]": {"system": "Du145 prostate cancer cells", "experiment": "Long-term growth curve with repeated electroporation, Du145", "format": "cell-based, human", "source_text": "as §2"}, "[8]": {"system": "lung cancer (A549, HTB-57) or cervical cancer (HeLa) cells", "settings": "A549, HTB-57, HeLa; miRNA given before the compound; cited from earlier work"}}, "data": [{"substance": "hsa-miR-126 (UCGUACCGUGAGUAAUAAUGC; synthetic pre-miR form, further chemistry not given here) [Synthetic hsa-miR-126 (Pre-miR™-hsa-miR-126, Ambion cat. no. AM17100)]", "values": [{"measurement": "tumor size relative to control tumors", "setting": "[1]", "value": "smaller in size"}, {"measurement": "% proliferation", "setting": "[2]", "value": 71.89, "unit": "%"}, {"measurement": "% proliferation", "setting": "[3]", "value": 63.41, "unit": "%"}, {"measurement": "% proliferation", "setting": "[4]", "value": 80.59, "unit": "%"}, {"measurement": "average inhibition of cellular proliferation", "setting": "[5]; average of PPC-1, Du145, LNCaP, RWPE2, 30 nM", "value": 23.07, "unit": "%"}, {"measurement": "growth-inhibitory activity compared with siEg5", "setting": "[5]; prostate cancer cell lines, 30 nM", "value": "comparable to that of Eg5-directed siRNA"}, {"measurement": "inhibition of cell growth", "setting": "[6]; PC3, day 21, 1.6 μM repeated electroporation, relative to control cells (100%)", "value": 90.7, "unit": "%"}, {"measurement": "remaining cells", "setting": "[6]; PC3, day 21, relative to control cells (100%)", "value": 9.3, "unit": "%"}, {"measurement": "inhibition of cell growth", "setting": "[7]; Du145, day 20, 1.6 μM repeated electroporation, relative to control cells (100%)", "value": 83.9, "unit": "%"}, {"measurement": "remaining cells", "setting": "[7]; Du145, day 20, relative to control cells (100%)", "value": 16.1, "unit": "%"}, {"measurement": "effect on cell death induced by therapeutic compound (e.g., etoposide)", "setting": "[8]", "value": "increased the capacity of the therapeutic compound to induce death"}]}]}
